According to the supplement of paper PMC10307832:

How the values were obtained:
Assay in all cases: relative viability (nuclei count vs DMSO), 5 days (fraction); higher = more cells survive
[1] = compound: CO[C@H]1C[C@@H]2CC[C@@H](C)[C@@](O)(O2)C(=O)C(=O)N2CCCC[C@H]2C(=O)O[C@H]([C@H](C)C[C@@H]2CC[C@@H](OCCO)[C@H](OC)C2)CC(=O)[C@H](C)/C=C(\C)[C@@H](O)[C@@H](OC)C(=O)[C@H](C)C[C@H](C)/C=C/C=C/C=C/1C [Everolimus] + CC(C)C[C@H](NC(=O)[C@H](Cc1ccccc1)NC(=O)c1cnccn1)B(O)O [Bortezomib] (partner 0.002 µM)
How it was run: (§1)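 Relative viability is defined as nuclei in treated wells over nuclei in vehicle wells. Duplicate plates were run and medians reported. Lung cancer cell lines in 1536-well plates were dosed by pin tool one day after seeding, with one drug or with a fixed anchor-drug dose plus five library-drug doses (not always all listed) in √10 steps, and nuclei were counted after 5 days.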

[2] = compound: CO[C@H]1C[C@@H]2CC[C@@H](C)[C@@](O)(O2)C(=O)C(=O)N2CCCC[C@H]2C(=O)O[C@H]([C@H](C)C[C@@H]2CC[C@@H](OCCO)[C@H](OC)C2)CC(=O)[C@H](C)/C=C(\C)[C@@H](O)[C@@H](OC)C(=O)[C@H](C)C[C@H](C)/C=C/C=C/C=C/1C [Everolimus] + Cc1cc(Nc2cc(N3CCN(C)CC3)nc(Sc3ccc(NC(=O)C4CC4)cc3)n2)n[nH]1 [Tozasertib] (partner 0.1 µM)
How it was run: as §1

[3] = compound: CO[C@H]1C[C@@H]2CC[C@@H](C)[C@@](O)(O2)C(=O)C(=O)N2CCCC[C@H]2C(=O)O[C@H]([C@H](C)C[C@@H]2CC[C@@H](OCCO)[C@H](OC)C2)CC(=O)[C@H](C)/C=C(\C)[C@@H](O)[C@@H](OC)C(=O)[C@H](C)C[C@H](C)/C=C/C=C/C=C/1C [Everolimus] + Nc1ncn([C@H]2C[C@H](O)[C@@H](CO)O2)c(=O)n1 [Decitabine] (partner 2 µM)
How it was run: as §1

[4] = compound: CO[C@H]1C[C@@H]2CC[C@@H](C)[C@@](O)(O2)C(=O)C(=O)N2CCCC[C@H]2C(=O)O[C@H]([C@H](C)C[C@@H]2CC[C@@H](OCCO)[C@H](OC)C2)CC(=O)[C@H](C)/C=C(\C)[C@@H](O)[C@@H](OC)C(=O)[C@H](C)C[C@H](C)/C=C/C=C/C=C/1C [Everolimus] + NC(=O)Nc1cc(-c2cccc(F)c2)sc1C(=O)N[C@H]1CCCNC1 [AZD7762] (partner 0.2 µM)
How it was run: as §1

Row | Cell Line | relative viability ([1]; first compound 0.01 µM) | relative viability ([1]; first compound 0.03162 µM) | relative viability ([1]; first compound 0.1 µM) | relative viability ([1]; first compound 0.3162 µM) | relative viability ([1]; first compound 1 µM) | relative viability ([2]; first compound 0.01 µM) | relative viability ([2]; first compound 0.03162 µM) | relative viability ([2]; first compound 0.1 µM) | relative viability ([2]; first compound 0.3162 µM) | relative viability ([2]; first compound 1 µM) | relative viability ([3]; first compound 0.01 µM) | relative viability ([3]; first compound 0.03162 µM) | relative viability ([3]; first compound 0.1 µM) | relative viability ([3]; first compound 0.3162 µM) | relative viability ([3]; first compound 1 µM) | relative viability ([4]; first compound 0.01 µM) | relative viability ([4]; first compound 0.03162 µM) | relative viability ([4]; first compound 0.1 µM) | relative viability ([4]; first compound 0.3162 µM) | relative viability ([4]; first compound 1 µM)
1 | SW 1573 | 0.707 | 0.512 | 0.602 | 0.491 | 0.636 | 0.16 | 0.172 | 0.13 | 0.157 | 0.132 | 0.268 | 0.331 | 0.298 | 0.306 | 0.338 |  |  |  |  | 
2 | COR-L 105 | 0.593 | 0.476 | 0.445 | 0.565 | 0.584 | 0.312 | 0.305 | 0.332 | 0.346 | 0.292 | 0.516 | 0.529 | 0.522 | 0.502 | 0.548 |  |  |  |  | 
3 | EBC-1 | 0.344 | 0.406 | 0.314 | 0.424 | 0.255 |  |  |  |  |  |  |  |  |  |  |  |  |  |  | 
4 | SK-LU-1 | 0.674 | 0.742 | 0.909 | 0.618 | 0.769 | 0.285 | 0.262 | 0.24 | 0.241 | 0.289 | 0.411 | 0.474 | 0.474 | 0.516 | 0.524 |  |  |  |  | 
5 | SW 900 |  |  |  |  |  | 0.332 | 0.462 | 0.442 | 0.404 | 0.448 | 0.434 | 0.404 | 0.4 | 0.406 | 0.439 | 0.362 | 0.33 | 0.285 | 0.36 | 0.427
6 | NCI-H522 |  |  |  |  |  | 0.584 | 0.432 | 0.409 | 0.505 | 0.458 | 0.594 | 0.677 | 0.517 | 0.684 | 0.537 | 0.622 | 0.64 | 0.579 | 0.651 | 0.686
7 | NCI-H520 | 0.327 | 0.282 | 0.243 | 0.195 | 0.276 | 0.271 | 0.28 | 0.264 | 0.222 | 0.239 | 0.273 | 0.281 | 0.26 | 0.287 | 0.294 |  |  |  |  | 
8 | UMC-11 | 0.325 | 0.34 | 0.301 | 0.356 | 0.362 | 0.212 | 0.195 | 0.208 | 0.215 | 0.198 | 0.329 | 0.359 | 0.352 | 0.367 | 0.392 |  |  |  |  | 
9 | NCI-H1792 | 0.819 | 0.705 | 0.657 | 0.572 | 0.538 |  |  |  |  |  | 0.396 | 0.338 | 0.249 | 0.276 | 0.199 | 0.312 | 0.312 | 0.304 | 0.185 | 0.262
10 | NCI-H1793 |  |  |  |  |  | 0.253 | 0.197 | 0.234 | 0.203 | 0.188 | 0.283 | 0.262 | 0.339 | 0.344 | 0.263 | 0.242 | 0.244 | 0.259 | 0.21 | 0.197
